Experimental data from the supplement of paper PMC10307832.

What was measured:
Assay in all cases: relative viability (nuclei count vs DMSO), 5 days (fraction); higher = more cells survive
VE-821 + Vorinostat = compound: CS(=O)(=O)c1ccc(-c2cnc(N)c(C(=O)Nc3ccccc3)n2)cc1 [VE-821] + O=C(CCCCCCC(=O)Nc1ccccc1)NO [Vorinostat] (partner 1 µM)
How it was run: (§1)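 A single step with final 0.05% Triton X-100, 1% formaldehyde and 1 ug/ml Hoechst fixed the cells and stained nuclei 5 days after treatment. Lung cancer cell lines in 1536-well plates had been treated by pin tool the day after seeding with one drug alone or a fixed anchor-drug dose plus five library-drug doses (not always all listed) in √10 steps, and nuclei were counted on 4× images. Relative viability is the ratio of nuclei in treated wells to nuclei in vehicle wells, taken as the median of duplicate plates.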

Ruxolitinib + Olaparib = compound: N#CC[C@H](C1CCCC1)n1cc(-c2ncnc3[nH]ccc23)cn1 [Ruxolitinib] + O=C(c1cc(Cc2n[nH]c(=O)c3ccccc23)ccc1F)N1CCN(C(=O)C2CC2)CC1 [Olaparib] (partner 8 µM)
How it was run: as §1

VE-821 + Crizotinib = compound: CS(=O)(=O)c1ccc(-c2cnc(N)c(C(=O)Nc3ccccc3)n2)cc1 [VE-821] + C[C@@H](Oc1cc(-c2cnn(C3CCNCC3)c2)cnc1N)c1c(Cl)ccc(F)c1Cl [Crizotinib] (partner 1 µM)
How it was run: as §1

Ruxolitinib + Navitoclax = compound: N#CC[C@H](C1CCCC1)n1cc(-c2ncnc3[nH]ccc23)cn1 [Ruxolitinib] + CC1(C)CCC(c2ccc(Cl)cc2)=C(CN2CCN(c3ccc(C(=O)NS(=O)(=O)c4ccc(N[C@H](CCN5CCOCC5)CSc5ccccc5)c(S(=O)(=O)C(F)(F)F)c4)cc3)CC2)C1 [Navitoclax] (partner 0.5 µM)
How it was run: as §1

Row | Cell Line | relative viability (VE-821 + Vorinostat; first compound 0.08 µM) | relative viability (VE-821 + Vorinostat; first compound 0.253 µM) | relative viability (VE-821 + Vorinostat; first compound 0.8 µM) | relative viability (VE-821 + Vorinostat; first compound 2.53 µM) | relative viability (VE-821 + Vorinostat; first compound 8 µM) | relative viability (Ruxolitinib + Olaparib; first compound 0.08 µM) | relative viability (Ruxolitinib + Olaparib; first compound 0.253 µM) | relative viability (Ruxolitinib + Olaparib; first compound 0.8 µM) | relative viability (Ruxolitinib + Olaparib; first compound 2.53 µM) | relative viability (Ruxolitinib + Olaparib; first compound 8 µM) | relative viability (VE-821 + Crizotinib; first compound 0.08 µM) | relative viability (VE-821 + Crizotinib; first compound 0.253 µM) | relative viability (VE-821 + Crizotinib; first compound 0.8 µM) | relative viability (VE-821 + Crizotinib; first compound 2.53 µM) | relative viability (VE-821 + Crizotinib; first compound 8 µM) | relative viability (Ruxolitinib + Navitoclax; first compound 0.253 µM) | relative viability (Ruxolitinib + Navitoclax; first compound 0.8 µM) | relative viability (Ruxolitinib + Navitoclax; first compound 2.53 µM) | relative viability (Ruxolitinib + Navitoclax; first compound 8 µM) | relative viability (Ruxolitinib + Navitoclax; first compound 0.08 µM)
1 | SW 900 | 0.503 | 0.449 | 0.453 | 0.305 | 0.341 | 0.805 | 0.944 | 0.955 | 1.05 | 0.91 |  |  |  |  |  |  |  |  |  | 
2 | NCI-H358 | 0.737 | 0.694 | 0.712 | 0.608 | 0.329 | 0.494 | 0.544 | 0.534 | 0.495 | 0.442 | 0.67 | 0.636 | 0.501 | 0.588 | 0.451 |  |  |  |  | 
3 | ChaGo-K-1 | 0.769 | 0.747 | 0.734 | 0.803 | 0.682 | 0.42 | 0.445 | 0.379 | 0.347 | 0.319 | 1.18 | 1.18 | 1 | 1.17 | 0.989 | 0.861 | 0.796 | 0.986 | 0.734 | 
4 | NCI-H1755 | 0.778 | 0.638 | 0.734 | 0.792 | 0.615 | 0.897 | 0.812 | 0.925 | 0.772 | 0.792 | 0.969 | 0.841 | 0.69 | 0.835 | 0.722 | 0.925 | 1 | 0.844 | 0.732 | 0.919
5 | LCLC-103H | 0.863 | 0.772 | 0.783 | 0.834 | 0.592 | 0.774 | 0.753 | 0.786 | 0.837 | 0.758 | 1.08 | 1 | 0.998 | 1.08 | 1.1 |  |  |  |  | 
6 | HCC-827 | 0.728 | 0.779 | 0.856 | 0.837 | 0.722 |  | 0.469 | 0.469 | 0.49 | 0.594 | 0.989 | 1.01 | 0.94 | 1.02 | 0.898 | 0.863 | 0.908 | 0.857 | 0.845 | 
7 | HCC-44 | 1.07 | 1.07 | 1.12 | 1.15 | 1.09 | 0.958 | 0.889 | 0.978 | 0.922 | 0.995 | 0.846 | 0.779 | 0.847 | 1.03 | 0.923 | 1.14 | 0.966 | 0.664 | 0.394 | 0.991
8 | NCI-H727 | 1.12 | 1.28 | 1.16 | 1.02 | 1.16 | 0.715 | 0.8 | 0.603 | 0.826 | 0.645 | 0.866 | 0.804 | 0.898 | 0.739 | 0.394 | 0.426 | 0.627 | 0.595 | 0.366 | 0.472
